Measurements: the supplement of paper PMC11061612

Experiments:
[1] = tested on: NCI-H2066 (Squamous Cell Lung Carcinoma); experiment: combination Emax (second highest fraction inhibited in the dose matrix, 72 h); higher = more inhibition; extreme values may be limits of the assay
Method in brief: (§1)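 Bliss excess equals the observed combination effect minus the expected value EA + EB − EA·EB, where EA and EB are the effects of each agent alone. Combination Emax is the second-highest inhibition within the matrix. Inhibition was scaled from CellTiter-Glo 2.0 luminescence, with 0 set by vehicle wells and 1 by blank wells, after 72 hours of two-drug dosing of cells plated in 1536-well plates.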

[2] = tested on: TT (Thyroid Gland Carcinoma); experiment: as above
Method in brief: as §1

[3] = tested on: CAPAN-2 (Pancreatic Carcinoma); experiment: as above
Method in brief: as §1

[4] = tested on: CCK-81 (Colorectal Carcinoma); experiment: as above
Method in brief: as §1

[5] = tested on: PANC-10-05 (Pancreatic Carcinoma); experiment: as above
Method in brief: as §1

NY (Osteosarcoma) [6] = experiment: as above
Method in brief: as §1

[7] = tested on: ONS-76 (Other Solid Carcinomas); experiment: as above
Method in brief: as §1

[8] = tested on: COLO-320-HSR (Colorectal Carcinoma); experiment: as above
Method in brief: as §1

[9] = tested on: NCI-H1666 (Lung Adenocarcinoma); experiment: as above
Method in brief: as §1

[10] = tested on: VCaP (Prostate Carcinoma); experiment: as above
Method in brief: as §1

U-2-OS (Osteosarcoma) [11] = experiment: as above
Method in brief: as §1

IGR-37 (Melanoma) [12] = experiment: as above
Method in brief: as §1

[13] = tested on: ECC10 (Gastric Carcinoma); experiment: as above
Method in brief: as §1

[14] = tested on: NCI-H1581 (Non-Small Cell Lung Carcinoma); experiment: as above
Method in brief: as §1

FU97 (Gastric Carcinoma) [15] = experiment: as above
Method in brief: as §1

[16] = tested on: KARPAS-422 (B-Cell Non-Hodgkin's Lymphoma); experiment: as above
Method in brief: as §1

[17] = tested on: NCI-H64 (Small Cell Lung Carcinoma); experiment: as above
Method in brief: as §1

[18] = tested on: NCI-H2066 (Squamous Cell Lung Carcinoma); experiment: Bliss excess, mean over the matrix (fraction); higher = more synergy
Method in brief: as §1

[19] = tested on: TT (Thyroid Gland Carcinoma); experiment: as above
Method in brief: as §1

[20] = tested on: CAPAN-2 (Pancreatic Carcinoma); experiment: as above
Method in brief: as §1

[21] = tested on: CCK-81 (Colorectal Carcinoma); experiment: as above
Method in brief: as §1

[22] = tested on: PANC-10-05 (Pancreatic Carcinoma); experiment: as above
Method in brief: as §1

NY (Osteosarcoma) [23] = experiment: as above
Method in brief: as §1

[24] = tested on: ONS-76 (Other Solid Carcinomas); experiment: as above
Method in brief: as §1

[25] = tested on: COLO-320-HSR (Colorectal Carcinoma); experiment: as above
Method in brief: as §1

[26] = tested on: NCI-H1666 (Lung Adenocarcinoma); experiment: as above
Method in brief: as §1

[27] = tested on: VCaP (Prostate Carcinoma); experiment: as above
Method in brief: as §1

U-2-OS (Osteosarcoma) [28] = experiment: as above
Method in brief: as §1

IGR-37 (Melanoma) [29] = experiment: as above
Method in brief: as §1

[30] = tested on: ECC10 (Gastric Carcinoma); experiment: as above
Method in brief: as §1

[31] = tested on: NCI-H1581 (Non-Small Cell Lung Carcinoma); experiment: as above
Method in brief: as §1

FU97 (Gastric Carcinoma) [32] = experiment: as above
Method in brief: as §1

[33] = tested on: KARPAS-422 (B-Cell Non-Hodgkin's Lymphoma); experiment: as above
Method in brief: as §1

[34] = tested on: NCI-H64 (Small Cell Lung Carcinoma); experiment: as above
Method in brief: as §1

[35] = tested on: BICR22 (Oral Cavity Carcinoma); experiment: combination Emax (second highest fraction inhibited in the dose matrix, 72 h); higher = more inhibition; extreme values may be limits of the assay
Method in brief: as §1

[36] = tested on: BICR22 (Oral Cavity Carcinoma); experiment: Bliss excess, mean over the matrix (fraction); higher = more synergy
Method in brief: as §1

C=CCn1c(=O)c2cnc(Nc3ccc(N4CCN(C)CC4)cc3)nc2n1-c1cccc(C(C)(C)O)n1 [AZD1775] + CCc1c2c(nc3ccc(O)cc13)-c1cc3c(c(=O)n1C2)COC(=O)[C@]3(O)CC [SN-38] (first compound max 1 µM, partner max 0.3 µM)
combination Emax [1]: 0.304 | combination Emax [2]: 0.941 | combination Emax [3]: 0.415 | combination Emax [4]: 0.845 | combination Emax [5]: 0.851 | combination Emax (NY (Osteosarcoma) [6]): 0.902 | combination Emax [7]: 0.835 | combination Emax [8]: 0.756 | combination Emax [9]: 0.539 | combination Emax [10]: 0.67 | combination Emax (U-2-OS (Osteosarcoma) [11]): 0.588 | combination Emax (IGR-37 (Melanoma) [12]): 0.823 | combination Emax [13]: 0.995 | combination Emax [14]: 0.965 | combination Emax (FU97 (Gastric Carcinoma) [15]): 0.391 | combination Emax [16]: 0.953 | combination Emax [17]: 0.887 | Bliss excess [18]: -0.0821 | Bliss excess [19]: -0.0838 | Bliss excess [20]: -0.0501 | Bliss excess [21]: -0.0839 | Bliss excess [22]: -0.029 | Bliss excess (NY (Osteosarcoma) [23]): -0.0575 | Bliss excess [24]: -0.0392 | Bliss excess [25]: -0.0294 | Bliss excess [26]: -0.0452 | Bliss excess [27]: -0.108 | Bliss excess (U-2-OS (Osteosarcoma) [28]): -0.0179 | Bliss excess (IGR-37 (Melanoma) [29]): -0.107 | Bliss excess [30]: -0.0663 | Bliss excess [31]: 0.0811 | Bliss excess (FU97 (Gastric Carcinoma) [32]): -0.0007 | Bliss excess [33]: -0.0699 | Bliss excess [34]: -0.017

C=CCn1c(=O)c2cnc(Nc3ccc(N4CCN(C)CC4)cc3)nc2n1-c1cccc(C(C)(C)O)n1 [AZD1775] + Nc1ccn([C@@H]2O[C@H](CO)[C@@H](O)C2(F)F)c(=O)n1 [Gemcitabine] (first compound max 1 µM, partner max 0.3 µM)
combination Emax [1]: 0.217 | combination Emax [2]: 0.486 | combination Emax [3]: 0.43 | combination Emax [4]: 0.81 | combination Emax [5]: 0.631 | combination Emax (NY (Osteosarcoma) [6]): 0.7 | combination Emax [7]: 0.559 | combination Emax [8]: 0.811 | combination Emax [9]: 0.46 | combination Emax [10]: 0.839 | combination Emax (U-2-OS (Osteosarcoma) [11]): 0.724 | combination Emax (IGR-37 (Melanoma) [12]): 0.674 | combination Emax [13]: 0.821 | combination Emax [14]: 0.948 | combination Emax [35]: 0.943 | combination Emax (FU97 (Gastric Carcinoma) [15]): 0.362 | combination Emax [16]: 0.847 | combination Emax [17]: 0.905 | Bliss excess [18]: -0.0678 | Bliss excess [19]: -0.0228 | Bliss excess [20]: -0.065 | Bliss excess [21]: -0.0665 | Bliss excess [22]: -0.0504 | Bliss excess (NY (Osteosarcoma) [23]): -0.0595 | Bliss excess [24]: -0.0804 | Bliss excess [25]: 0.0066 | Bliss excess [26]: -0.0561 | Bliss excess [27]: -0.0094 | Bliss excess (U-2-OS (Osteosarcoma) [28]): 0.029 | Bliss excess (IGR-37 (Melanoma) [29]): -0.0346 | Bliss excess [30]: 0.0012 | Bliss excess [31]: 0.124 | Bliss excess [36]: -0.0077 | Bliss excess (FU97 (Gastric Carcinoma) [32]): -0.0313 | Bliss excess [33]: -0.0482 | Bliss excess [34]: -0.0098

CN(CCO)CC[C@H](CSc1ccccc1)Nc1ccc(S(=O)(=O)NC(=O)c2ccc(N3CCC([C@@H](O)c4ccccc4-c4ccc(Cl)cc4)CC3)cc2)cc1S(=O)(=O)C(F)(F)F [AZD4320] + CC(=O)O[C@H]1C(=O)[C@@]2(C)[C@H]([C@H](OC(=O)c3ccccc3)[C@]3(O)C[C@H](OC(=O)[C@H](O)[C@@H](NC(=O)c4ccccc4)c4ccccc4)C(C)=C1C3(C)C)[C@]1(OC(C)=O)CO[C@@H]1C[C@@H]2O [Paclitaxel] (first compound max 1 µM, 7x7, partner max 3 µM)
combination Emax [1]: 0.856 | combination Emax [2]: 0.665 | combination Emax [3]: 0.853 | combination Emax [4]: 1 | combination Emax [5]: 0.64 | combination Emax (NY (Osteosarcoma) [6]): 0.981 | combination Emax [7]: 0.919 | combination Emax [8]: 0.791 | combination Emax [9]: 0.841 | combination Emax [10]: 0.881 | combination Emax (U-2-OS (Osteosarcoma) [11]): 0.922 | combination Emax (IGR-37 (Melanoma) [12]): 0.938 | combination Emax [13]: 1 | combination Emax [14]: 0.99 | combination Emax [35]: 0.981 | combination Emax (FU97 (Gastric Carcinoma) [15]): 0.433 | combination Emax [16]: 0.999 | combination Emax [17]: 1 | Bliss excess [18]: 0.124 | Bliss excess [19]: 0.184 | Bliss excess [20]: 0.0494 | Bliss excess [21]: -0.0433 | Bliss excess [22]: -0.0275 | Bliss excess (NY (Osteosarcoma) [23]): -0.0067 | Bliss excess [24]: 0.0661 | Bliss excess [25]: 0.0041 | Bliss excess [26]: 0.112 | Bliss excess [27]: 0.0175 | Bliss excess (U-2-OS (Osteosarcoma) [28]): 0.0272 | Bliss excess (IGR-37 (Melanoma) [29]): -0.0174 | Bliss excess [30]: 0.0272 | Bliss excess [31]: 0.0126 | Bliss excess [36]: -0.0024 | Bliss excess (FU97 (Gastric Carcinoma) [32]): 0.101 | Bliss excess [33]: 0.141 | Bliss excess [34]: 0.237
